For two compounds, IC50 results are on record in BindingDB's records for doi:10.3109/14756366.2010.528415 (Khyber Medical College, 2011).

The target of the experiment is Urease (Canavalia ensiformis, UniProt P07374). In words: Urease Inhibition Assay. On the procedure: Reaction mixtures comprising 25 μL of enzyme (jack bean urease) solution and 55 μL of buffers containing 100 mM urea were incubated with 5 μL of test compounds (0.5 mM concentration) at 30°C for 15 min in 96-well plates. Urease activity was determined by measuring ammonia production using the indophenol method as described by weather burn14. Briefly, 45 μL each phenol reagent (1% w/v phenol and 0.005% w/v sodium nitroprusside) and 70 μL of alkali reagent (0.5% w/v NaOH and0.1% active chloride NaOCl) were added to each well. The increasing absorbance at 630 nm was measured after 50 min, using a microplate reader (Molecular Device). All reactions were performed in triplicate in a final volume of 200 μL.

By IC50 is commonly meant the concentration needed to halve the response being measured.

Molecules are shown by their SMILES.

Urease, sequence (P07374 whole entry): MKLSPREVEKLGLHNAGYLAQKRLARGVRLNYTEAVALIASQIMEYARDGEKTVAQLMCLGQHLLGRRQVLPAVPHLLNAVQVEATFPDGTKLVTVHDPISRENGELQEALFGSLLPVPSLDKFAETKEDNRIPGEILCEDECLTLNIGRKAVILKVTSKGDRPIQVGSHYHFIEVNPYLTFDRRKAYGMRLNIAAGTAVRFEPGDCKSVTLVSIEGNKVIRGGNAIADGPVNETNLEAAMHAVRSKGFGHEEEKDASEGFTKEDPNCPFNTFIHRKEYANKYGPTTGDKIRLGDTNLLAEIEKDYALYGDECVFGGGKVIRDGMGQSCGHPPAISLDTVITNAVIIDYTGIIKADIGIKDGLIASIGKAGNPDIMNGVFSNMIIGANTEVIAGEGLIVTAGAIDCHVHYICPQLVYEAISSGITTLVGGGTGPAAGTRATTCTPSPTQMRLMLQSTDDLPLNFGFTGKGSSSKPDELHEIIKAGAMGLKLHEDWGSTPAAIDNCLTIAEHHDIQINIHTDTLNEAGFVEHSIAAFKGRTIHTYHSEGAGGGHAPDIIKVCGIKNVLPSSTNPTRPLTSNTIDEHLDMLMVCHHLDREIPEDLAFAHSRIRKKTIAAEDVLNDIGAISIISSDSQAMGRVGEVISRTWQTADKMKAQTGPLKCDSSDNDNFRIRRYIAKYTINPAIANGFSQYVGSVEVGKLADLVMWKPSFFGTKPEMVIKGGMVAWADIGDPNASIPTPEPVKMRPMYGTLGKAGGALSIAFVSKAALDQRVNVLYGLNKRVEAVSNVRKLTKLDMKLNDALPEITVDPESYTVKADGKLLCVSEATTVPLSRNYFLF

Compound `CC(C)CCCCc1ccc(O[C@@H]2OC(CO)[C@H](O)[C@@H](O)C2O)cc1` (some centres not stated) [Indigoferin-B (2)] yielded an IC50 of 29.7 µM. `CC(O)CCCCC(=O)c1c(O)cc(O)cc1O` (configuration not stated) [Indigoferin-C (3)] gave an IC50 of 23.3 µM.
